Tested on: Rh18 complex spheroid viability, percent test/control
Assay: Anticancer human tumor Rh18 cell line growth inhibition [Asc];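 note: spheroids exposed to compound for 7 days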;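 for viability, T/C: 100% = DMSO vehicle control wells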
Conditions: for IC50: curve of first compound; for viability, T/C: stronger effect = lower value
Outline: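 Concentration series start at each agent's clinical Cmax, or at 10 microM when none is established, and drop in half-log steps; agents are applied alone or together to complex spheroids built with HUVEC and hMSC.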

[1] = second compound 0.1 µM, first compound 0.00316 µM
[2] = second compound 0.1 µM, first compound 0.01 µM
[3] = second compound 0.1 µM, first compound 0.0316 µM
[4] = second compound 0.1 µM, first compound 0.1 µM
[5] = second compound 0.1 µM, first compound 0.316 µM
[6] = second compound 0.1 µM, first compound 1 µM
[7] = second compound 0.316 µM, first compound 0.00316 µM
[8] = second compound 0.316 µM, first compound 0.01 µM
[9] = second compound 0.316 µM, first compound 0.0316 µM
[10] = second compound 0.316 µM, first compound 0.1 µM
[11] = second compound 0.316 µM, first compound 0.316 µM
[12] = second compound 0.316 µM, first compound 1 µM
[13] = second compound 1 µM, first compound 0.00316 µM
[14] = second compound 1 µM, first compound 0.01 µM
[15] = second compound 1 µM, first compound 0.0316 µM
[16] = second compound 1 µM, first compound 0.1 µM
[17] = second compound 1 µM, first compound 0.316 µM
[18] = second compound 1 µM, first compound 1 µM
[19] = second compound 3.16 µM, first compound 0.00316 µM
[20] = second compound 3.16 µM, first compound 0.01 µM
[21] = second compound 3.16 µM, first compound 0.0316 µM
[22] = second compound 3.16 µM, first compound 0.1 µM
[23] = second compound 3.16 µM, first compound 0.316 µM
[24] = second compound 3.16 µM, first compound 1 µM
[25] = second compound 10 µM, first compound 0.00316 µM
[26] = second compound 10 µM, first compound 0.01 µM
[27] = second compound 10 µM, first compound 0.0316 µM
[28] = second compound 10 µM, first compound 0.1 µM
[29] = second compound 10 µM, first compound 0.316 µM
[30] = second compound 10 µM, first compound 1 µM

`Cc1nc(N2CCC3(CC2)COC(C)C3N)c(CO)nc1Sc1ccnc(N)c1Cl` (stereo not given) + Cc1c(S(C)(=O)=O)c(-c2cc(F)cc(N3CCN(c4ccc(NS(=O)(=O)c5ccc(NC(CCN6CCC(C(=O)OCCCP(=O)(O)O)CC6)CSc6ccccc6)c(S(=O)(=O)C(F)(F)F)c5)cc4)CC3)c2)c(-c2ccc(Cl)cc2)n1C(C)C was tested, and the IC50 (second compound 0.1 µM) was < 9.49 nM, the IC50 (second compound 0.316 µM) was < 9.49 nM and the IC50 (second compound 1 µM) was < 9.49 nM. For the same compound, the IC50 (second compound 3.16 µM) was < 9.49 nM, the IC50 (second compound 10 µM) was < 9.49 nM and the viability, T/C (second compound 0.1 µM, first compound 0.00949 µM) was 11.9%. It also gave a viability, T/C (second compound 0.1 µM, first compound 0.03 µM) of 11.6%, a viability, T/C (second compound 0.1 µM, first compound 0.0949 µM) of 11.1% and a viability, T/C (second compound 0.1 µM, first compound 0.3 µM) of 7.3%. For the same compound, the viability, T/C (second compound 0.1 µM, first compound 0.949 µM) was 7.66%, the viability, T/C (second compound 0.1 µM, first compound 3 µM) was 5.44% and the viability, T/C (second compound 0.316 µM, first compound 0.00949 µM) was 8.93%. It also gave a viability, T/C (second compound 0.316 µM, first compound 0.03 µM) of 9.76%, a viability, T/C (second compound 0.316 µM, first compound 0.0949 µM) of 7.87% and a viability, T/C (second compound 0.316 µM, first compound 0.3 µM) of 5.11%. The viability, T/C (second compound 0.316 µM, first compound 0.949 µM) was 5.06%, the viability, T/C (second compound 0.316 µM, first compound 3 µM) was 4.22% and the viability, T/C (second compound 1 µM, first compound 0.00949 µM) was 7.05%. For the same compound, the viability, T/C (second compound 1 µM, first compound 0.03 µM) was 7.01%, the viability, T/C (second compound 1 µM, first compound 0.0949 µM) was 6.81% and the viability, T/C (second compound 1 µM, first compound 0.3 µM) was 4.44%. It also gave a viability, T/C (second compound 1 µM, first compound 0.949 µM) of 4.09%, a viability, T/C (second compound 1 µM, first compound 3 µM) of 2.1% and a viability, T/C (second compound 3.16 µM, first compound 0.00949 µM) of 4.29%. It also gave a viability, T/C (second compound 3.16 µM, first compound 0.03 µM) of 6.13%, a viability, T/C (second compound 3.16 µM, first compound 0.0949 µM) of 4.92% and a viability, T/C (second compound 3.16 µM, first compound 0.3 µM) of 3.71%. For the same compound, the viability, T/C (second compound 3.16 µM, first compound 0.949 µM) was 2.47%, the viability, T/C (second compound 3.16 µM, first compound 3 µM) was 2.4% and the viability, T/C (second compound 10 µM, first compound 0.00949 µM) was 4.54%. It also gave a viability, T/C (second compound 10 µM, first compound 0.03 µM) of 4.83%, a viability, T/C (second compound 10 µM, first compound 0.0949 µM) of 3.89% and a viability, T/C (second compound 10 µM, first compound 0.3 µM) of 3.77%. It also gave a viability, T/C (second compound 10 µM, first compound 0.949 µM) of 2.82% and a viability, T/C (second compound 10 µM, first compound 3 µM) of 1.96%.

With `CNC(C)C(=O)NC1CN(S(=O)(=O)c2cccc(S(=O)(=O)N3CCC4CCC(C(=O)NC(c5ccccc5)c5ccccc5)N4C(=O)C(NC(=O)C(C)NC)C3)c2)CCC2CCC(C(=O)NC(c3ccccc3)c3ccccc3)N2C1=O` (stereo not given) + Cc1c(S(C)(=O)=O)c(-c2cc(F)cc(N3CCN(c4ccc(NS(=O)(=O)c5ccc(NC(CCN6CCC(C(=O)OCCCP(=O)(O)O)CC6)CSc6ccccc6)c(S(=O)(=O)C(F)(F)F)c5)cc4)CC3)c2)c(-c2ccc(Cl)cc2)n1C(C)C the IC50 (second compound 0.1 µM) was < 3.16 nM, the IC50 (second compound 0.316 µM) was < 3.16 nM and the IC50 (second compound 1 µM) was < 3.16 nM. For the same compound, the IC50 (second compound 3.16 µM) was < 3.16 nM, the IC50 (second compound 10 µM) was < 3.16 nM and the viability, T/C [1] was 11.9%. For the same compound, the viability, T/C [2] was 9.77%, the viability, T/C [3] was 7.82% and the viability, T/C [4] was 7.58%. For the same compound, the viability, T/C [5] was 5.36%, the viability, T/C [6] was 6.51% and the viability, T/C [7] was 8.42%. It also gave a viability, T/C [8] of 7.07%, a viability, T/C [9] of 8.09% and a viability, T/C [10] of 5.52%. For the same compound, the viability, T/C [11] was 3.69%, the viability, T/C [12] was 5.21% and the viability, T/C [13] was 7.09%. The viability, T/C [14] was 5.98%, the viability, T/C [15] was 4.86% and the viability, T/C [16] was 4.96%. For the same compound, the viability, T/C [17] was 4.99%, the viability, T/C [18] was 4.12% and the viability, T/C [19] was 4.15%. For the same compound, the viability, T/C [20] was 4.41%, the viability, T/C [21] was 3.7% and the viability, T/C [22] was 4.89%. The viability, T/C [23] was 2.21%, the viability, T/C [24] was 3.61% and the viability, T/C [25] was 5.31%. The viability, T/C [26] was 4.19%, the viability, T/C [27] was 2.98% and the viability, T/C [28] was 3.4%. The viability, T/C [29] was 2.94% and the viability, T/C [30] was 2.34%.

`O=C(c1ccc(F)c(F)c1Nc1ccc(I)cc1F)N1CC(O)([C@@H]2CCCCN2)C1` + Cc1c(S(C)(=O)=O)c(-c2cc(F)cc(N3CCN(c4ccc(NS(=O)(=O)c5ccc(NC(CCN6CCC(C(=O)OCCCP(=O)(O)O)CC6)CSc6ccccc6)c(S(=O)(=O)C(F)(F)F)c5)cc4)CC3)c2)c(-c2ccc(Cl)cc2)n1C(C)C was tested, and the IC50 (second compound 0.1 µM) was < 3.16 nM, the IC50 (second compound 0.316 µM) was < 3.16 nM and the IC50 (second compound 1 µM) was < 3.16 nM. The IC50 (second compound 3.16 µM) was < 3.16 nM, the IC50 (second compound 10 µM) was < 3.16 nM and the viability, T/C [1] was 14.8%. The viability, T/C [2] was 13.6%, the viability, T/C [3] was 17.2% and the viability, T/C [4] was 11%. It also gave a viability, T/C [5] of 6.6%, a viability, T/C [6] of 1.12% and a viability, T/C [7] of 9.21%. It also gave a viability, T/C [8] of 11.2%, a viability, T/C [9] of 11% and a viability, T/C [10] of 8.03%. The viability, T/C [11] was 4.04%, the viability, T/C [12] was 0.96% and the viability, T/C [13] was 8.77%. It also gave a viability, T/C [14] of 14.6%, a viability, T/C [15] of 6.89% and a viability, T/C [16] of 7.25%. For the same compound, the viability, T/C [17] was 3.29%, the viability, T/C [18] was 0.52% and the viability, T/C [19] was 7.36%. The viability, T/C [20] was 7.93%, the viability, T/C [21] was 7.81% and the viability, T/C [22] was 5.28%. The viability, T/C [23] was 1.59%, the viability, T/C [24] was 0.38% and the viability, T/C [25] was 5.3%. For the same compound, the viability, T/C [26] was 4.85%, the viability, T/C [27] was 4.39% and the viability, T/C [28] was 2.53%. The viability, T/C [29] was 1.08% and the viability, T/C [30] was 0.6%.

With `Cn1ncnc1[C@H]1c2n[nH]c(=O)c3cc(F)cc(c23)N[C@@H]1c1ccc(F)cc1` + CCN1C(C(=O)NC23CCC(C(=O)O)(CC2)CC3)C(c2cccc(Cl)c2F)C2(C(=O)Nc3cc(Cl)ccc32)C12CCCCC2 the IC50 (second compound 0.03 µM) was < 0.316 nM, the IC50 (second compound 0.0949 µM) was < 0.316 nM and the IC50 (second compound 0.3 µM) was < 0.316 nM. The IC50 (second compound 0.949 µM) was < 0.316 nM, the IC50 (second compound 3 µM) was < 0.316 nM and the viability, T/C (second compound 0.03 µM, first compound 0.000316 µM) was 39%. It also gave a viability, T/C (second compound 0.03 µM, first compound 0.001 µM) of 36.2%, a viability, T/C (second compound 0.03 µM, first compound 0.00316 µM) of 45.6% and a viability, T/C (second compound 0.03 µM, first compound 0.01 µM) of 36.1%. For the same compound, the viability, T/C (second compound 0.03 µM, first compound 0.0316 µM) was 39.4%, the viability, T/C (second compound 0.03 µM, first compound 0.1 µM) was 49% and the viability, T/C (second compound 0.0949 µM, first compound 0.000316 µM) was 22.7%. The viability, T/C (second compound 0.0949 µM, first compound 0.001 µM) was 27.1%, the viability, T/C (second compound 0.0949 µM, first compound 0.00316 µM) was 25.6% and the viability, T/C (second compound 0.0949 µM, first compound 0.01 µM) was 26.6%. It also gave a viability, T/C (second compound 0.0949 µM, first compound 0.0316 µM) of 25.5%, a viability, T/C (second compound 0.0949 µM, first compound 0.1 µM) of 25.3% and a viability, T/C (second compound 0.3 µM, first compound 0.000316 µM) of 13.3%. It also gave a viability, T/C (second compound 0.3 µM, first compound 0.001 µM) of 15.4%, a viability, T/C (second compound 0.3 µM, first compound 0.00316 µM) of 13% and a viability, T/C (second compound 0.3 µM, first compound 0.01 µM) of 13.1%. For the same compound, the viability, T/C (second compound 0.3 µM, first compound 0.0316 µM) was 13.3%, the viability, T/C (second compound 0.3 µM, first compound 0.1 µM) was 13.3% and the viability, T/C (second compound 0.949 µM, first compound 0.000316 µM) was 11.1%. It also gave a viability, T/C (second compound 0.949 µM, first compound 0.001 µM) of 11.2%, a viability, T/C (second compound 0.949 µM, first compound 0.00316 µM) of 11.7% and a viability, T/C (second compound 0.949 µM, first compound 0.01 µM) of 10.4%. The viability, T/C (second compound 0.949 µM, first compound 0.0316 µM) was 9.91%, the viability, T/C (second compound 0.949 µM, first compound 0.1 µM) was 9.54% and the viability, T/C (second compound 3 µM, first compound 0.000316 µM) was 9.71%. The viability, T/C (second compound 3 µM, first compound 0.001 µM) was 9.49%, the viability, T/C (second compound 3 µM, first compound 0.00316 µM) was 9.33% and the viability, T/C (second compound 3 µM, first compound 0.01 µM) was 7.51%. The viability, T/C (second compound 3 µM, first compound 0.0316 µM) was 8.46% and the viability, T/C (second compound 3 µM, first compound 0.1 µM) was 7.12%.

From PubChem BioAssay AID1963431 (Molecular Pharmacology Branch, DTP, NCI, 2024)
